Measured values taken from patent publication US6825230B2, “Spiro and dispiro 1,2,4-trixolane antimalarials” (Medicines for Malaria Venture MMV, priority 2002, dated 2004).
Values after ≈ are worked out from the molar mass of the structure shown. Like-named read-outs stand apart in the source and are kept apart here.

Columns and labels:
[1] = test system: ANKA strain of P. berghei; assay: Single dose STI in vivo screen in infected mice; set-up: species or system Plasmodium berghei; conditions: for Survival (days) 10 mg/kg po: single 10 mg/kg po in 3% ethanol and 7% Tween 80; for Survival (days) 10 mg/kg po / Survival (days) 10 mg/kg SSV po / Survival (days) 10 mg/kg sc: untreated 6-7 days; for Activity (%) 10 mg/kg po: single 10 mg/kg po in 3% ethanol and 7% Tween 80 on day 1 post-infection; for Activity (%) 10 mg/kg po / Activity (%) 10 mg/kg SSV po / Activity (%) 10 mg/kg sc: percent reduction in parasitemia on day 3; for Survival (days) 10 mg/kg SSV po: single 10 mg/kg po in SSV; for Activity (%) 10 mg/kg SSV po: single 10 mg/kg po in standard suspending vehicle (SSV) on day 1 post-infection; for Survival (days) 10 mg/kg sc: single 10 mg/kg sc in 3% ethanol and 7% Tween 80; for Activity (%) 10 mg/kg sc: single 10 mg/kg sc in 3% ethanol and 7% Tween 80 on day 1 post-infection
[2] = test system: chloroquine-sensitive NF54 strain of P. falciparum; assay: In vitro antimalarial semiautomated microdilution assay ([3H]-hypoxanthine incorporation), NF54 strain; assay type: cell-based, Plasmodium falciparum; conditions: for IC50: Plasmodium falciparum
In short: (§1)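 Logit regression analysis yields the fifty percent inhibitory concentration. Compounds are tested by semiautomated microdilution on intraerythrocytic parasites drawn from asynchronous stock cultures, measuring [3H]-hypoxanthine incorporation.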

[3] = test system: Schistosoma mansoni adult worms (49-day-old); assay: Effect on adult schistosomes (49-day-old) in infected mice; assay type: in vivo; conditions: single 400 mg/kg per os; for % reduction of adult worms growth at day 49 after per os application of 400 mg/kg, TWR (%): 49-day-old adults, total worm reduction rate; for Adult worms day 49, per os 400 mg/kg, DEAD WORM (%): percentage of dead worm in the liver
Procedure: Mice were infected with 100 Schistosoma mansoni cercariae on day 49 post-treatment. Each group was treated per os with OZ compounds at single doses of 200, 400, and 600 mg/kg. Untreated mice served as the control. All groups were killed 4 weeks after treatment and the liver and intestine were removed and separated. The liver and intestine were compressed and alive male and female worms could be seen and counted.

[4] = test system: chloroquine-resistant K1 strain of P. falciparum; assay: In vitro antimalarial semiautomated microdilution assay ([3H]-hypoxanthine incorporation), K1 strain; assay type: cell-based, Plasmodium falciparum; conditions: for IC50: Plasmodium falciparum
In short: as §1

P. berghei ANKA strain = assay: Divided 3x3 mg/kg and 3x1 mg/kg po doses in infected mice; assay type: in vivo, Plasmodium berghei; conditions: for Activity (%): percent reduction of parasitemia vs control on day 4
Procedure: Moro NMRI male mice (Fu Albino specific pathogen free) weighing 18±2 g were infected intravenously (i.v.) with 2×10^7 P. berghei ANKA strain-infected erythrocytes from donor mice on day 0 of the experiment. From donor mice with circa 30% parasitemia, heparinized blood was taken and diluted in physiological saline to 10^8 parasitized erythrocytes per ml. An aliquot (0.2 ml) of this suspension was injected i.v. into experimental and control groups of mice. […] Throughout the experiments, mice were kept in groups of three or five animals in Makrolon type II cages in an air-conditioned animal room at 22 to 23° C.
They were administered per os (p.o.) in a total volume of 0.01 ml per gram of mouse. The activity of the compound was determined by a variety of methods outlined in subsequent sections. Survival time was also recorded, and survival to day 30 post-infection was considered to be a cure.
The second experiment consists of administration of divided 3×3 mg/kg and 3×1 mg/kg po doses administered on days 1, 2, and 3 post-infection. On day 4 post-infection, blood smears of all animals were prepared and stained with Giemsa. […] Compounds were administered orally in the SSV vehicle.

[5] = NF54, 72 h, read-out: IC50 (ng/ml) NF54, chloroquine-sensitive NF54 strain, 72 h incubation
[6] = K1, 72 h, read-out: IC50 (ng/ml) K1, chloroquine-resistant K1 strain, 72 h incubation
[7] = chloroquine-sensitive NF54 strain, 72 h incubation
[8] = 3 × 1 mg/kg p.o. SSV on days 1, 2, 3 post-infection
[9] = 3 × 3 mg/kg p.o. SSV on days 1, 2, 3 post-infection

| SMILES | Survival (days) 10 mg/kg po [1] [days] | % reduction of adult worms growth at day 49 after per os application of 400 mg/kg, TWR (%) [3] [%] | Adult worms day 49, per os 400 mg/kg, DEAD WORM (%) [3] | Survival (P. berghei ANKA strain; [8]) [days] | Activity (%) (P. berghei ANKA strain; [8]) | Survival (P. berghei ANKA strain; [9]) [days] | Activity (%) (P. berghei ANKA strain; [9]) | further results |
| --- | --- | --- | --- | --- | --- | --- | --- | --- |
| O=C1COC2(CCC3(CC2)OOC2(O3)C3CC4CC(C3)CC2C4)OC1 (stereo not shown) [OZ130, Adamantane-2-spiro-3′-11′-oxo-1′,2′,4′,9′,13′-pentaoxadispiro[4.2.5.2]pentadecane] | 9.0 | 0 | 8% |  |  |  |  | Activity (%) 10 mg/kg po [1]: 98.8%; Survival (days) 10 mg/kg SSV po [1]: 8.0 days; Activity (%) 10 mg/kg SSV po [1]: 98.9%; Survival (days) 10 mg/kg sc [1]: 7.3 days; Activity (%) 10 mg/kg sc [1]: 98.6%; IC50 [2, 5]: 0.94 ng/mL (≈ 0.00268 µM); IC50 [4, 6]: 0.62 ng/mL (≈ 0.00177 µM) |
| O=C([C@H]1CC[C@]2(CC1)OOC1(O2)C2CC3CC(C2)CC1C3)N1CCN(c2ccccc2)CC1 (stereo partly shown) [OZ140] | 6.0 | 0 | 3% |  |  |  |  | Activity (%) 10 mg/kg po [1]: 0%; Survival (days) 10 mg/kg SSV po [1]: 6.3 days; Activity (%) 10 mg/kg SSV po [1]: 8%; Survival (days) 10 mg/kg sc [1]: 7.0 days; Activity (%) 10 mg/kg sc [1]: 60%; IC50 [2, 5]: 8.2 ng/mL (≈ 0.0181 µM); IC50 [4, 6]: 5.9 ng/mL (≈ 0.013 µM) |
| O=C(OC[C@H]1CC[C@]2(CC1)OOC1(O2)C2CC3CC(C2)CC1C3)N1CCN(c2ccccc2)CC1 (stereo partly drawn) [OZ148, cis-Adamantane-2-spiro-3′-1′,2′,4′-trioxaspiro[4.5]decane-8′-methyl 4-phenylpiperazine-1-carboxylate] | 7.3 | 25 | 0% |  |  |  |  | Activity (%) 10 mg/kg po [1]: 38%; Survival (days) 10 mg/kg SSV po [1]: 7.7 days; Activity (%) 10 mg/kg SSV po [1]: 58%; Survival (days) 10 mg/kg sc [1]: 6.3 days; Activity (%) 10 mg/kg sc [1]: 21%; IC50 ([2]; chloroquine-sensitive NF54 strain, 72 h incubation, read-out: IC50 (ng/ml) NF54): 16 ng/mL (≈ 0.0332 µM); IC50 ([4]; chloroquine-resistant K1 strain, 72 h incubation, read-out: IC50 (ng/ml) K1): 17 ng/mL (≈ 0.0352 µM) |
| OC12CC3CC(C1)C1(OOC4(CCC5(CC4)OCCO5)O1)C(C3)C2 (stereo not shown) [OZ153, 5-Hydroxyadamantane-2-spiro-3′-1′,2′,4′,9′,12′-pentaoxadispiro[4.2.4.2]tetradecane] | 6.3 |  | no dead |  |  |  |  | Activity (%) 10 mg/kg po ([1]; 10 mg/kg): 15%; Survival (days) 10 mg/kg SSV po ([1]; 10 mg/kg): 7.0 days; Activity (%) 10 mg/kg SSV po ([1]; 10 mg/kg): 23%; Survival (days) 10 mg/kg sc ([1]; 10 mg/kg): 6.3 days; Activity (%) 10 mg/kg sc ([1]; 10 mg/kg): 20%; IC50 (ng/ml) NF54 [2, 7]: 19 ng/mL (≈ 0.0561 µM); IC50 (ng/ml) K1 ([4]; chloroquine-resistant K1 strain, 72 h incubation): 7.7 ng/mL (≈ 0.0228 µM) |
| CC1(C)COC(c2ccc([C@H]3CC[C@]4(CC3)OOC3(O4)C4CC5CC(C4)CC3C5)cc2)=N1 (stereo partly shown) [OZ154] |  | 58 | 0% |  |  |  |  | Survival (days) 10 mg/kg po ([1]; 10 mg/kg): 14.7 days; Activity (%) 10 mg/kg po ([1]; 10 mg/kg): 99.74%; Survival (days) 10 mg/kg SSV po ([1]; 10 mg/kg): 8.7 days; Activity (%) 10 mg/kg SSV po ([1]; 10 mg/kg): 81%; Survival (days) 10 mg/kg sc ([1]; 10 mg/kg): 7.7 days; Activity (%) 10 mg/kg sc ([1]; 10 mg/kg): 59%; IC50 (ng/ml) NF54 [2, 7]: 6.1 ng/mL (≈ 0.0139 µM); IC50 [4, 6]: 5 ng/mL (≈ 0.0114 µM) |
| O=C(C[C@H]1CC[C@]2(CC1)OOC1(O2)C2CC3CC(C2)CC1C3)N1CCOCC1 (stereo partly shown) [OZ189] | 9.3 | 0 | 30% |  |  |  |  | Activity (%) 10 mg/kg po [1]: 95%; Survival (days) 10 mg/kg SSV po [1]: 9.0 days; Activity (%) 10 mg/kg SSV po [1]: 99.79%; Survival (days) 10 mg/kg sc [1]: 10.7 days; Activity (%) 10 mg/kg sc [1]: 98%; IC50 [2, 5]: 3 ng/mL (≈ 0.00766 µM); IC50 [4, 6]: 1.7 ng/mL (≈ 0.00434 µM) |
| C1=C(c2ccccc2)CCC2(C1)OOC1(O2)C2CC3CC(C2)CC1C3 (stereo not shown) [OZ226, Adamantane-2-spiro-3′-8′-phenyl-1′,2′,4′-trioxaspiro[4.5]dec-7′-ene] | 5.0 | 52 | 0% |  |  |  |  | Activity (%) 10 mg/kg po [1]: 0%; Survival (days) 10 mg/kg SSV po [1]: 5.3 days; Activity (%) 10 mg/kg SSV po [1]: 0%; Survival (days) 10 mg/kg sc [1]: 11.0 days; Activity (%) 10 mg/kg sc [1]: 99.92%; IC50 [2, 5]: 4 ng/mL (≈ 0.0118 µM); IC50 [4, 6]: 4 ng/mL (≈ 0.0118 µM) |
| Oc1ccc(C2CCC3(CC2)OOC2(O3)C3CC4CC(C3)CC2C4)cc1 (stereo not shown) [compound 288] |  |  |  | 8.4 | 49 | 10.2 | 99 |  |
| CCOC(=O)CNCC1CCC2(CC1)OOC1(O2)C2CC3CC(C2)CC1C3.CS(=O)(=O)O (stereo not shown) [compound 290] |  |  |  | 6.8 | 14 | 10.6 | 93 |  |
| O=C1CN(C(=O)CC2CCC3(CC2)OOC2(O3)C3CC4CC(C3)CC2C4)CCN1 (stereo not shown) [compound 296] |  |  |  | 7.8 | 49 | 9.4 | 94 |  |
| O=C(CC1CCC2(CC1)OOC1(O2)C2CC3CC(C2)CC1C3)N1CCC(O)CC1 (stereo not shown) [compound 297] |  |  |  | 6.4 | 22 | 9.4 | 89 |  |
| NS(=O)(=O)c1ccc(NCC2CCC3(CC2)OOC2(O3)C3CC4CC(C3)CC2C4)cc1 (stereo not shown) [compound 298] |  |  |  | 11 | 93 | 16.4 | 99.99 |  |
| O=c1ccn(CC2CCC3(CC2)OOC2(O3)C3CC4CC(C3)CC2C4)cc1 (stereo not shown) [compound 302] |  |  |  | 13.4 | 87 | 13.4 | 99.51 |  |
| Cc1ccc(S(=O)(=O)O)cc1.NCCNC(=O)CC1CCC2(CC1)OOC1(O2)C2CC3CC(C2)CC1C3 (stereo not shown) [compound 305] |  |  |  | 9.6 | 87 | 12.2 | 99.91 |  |
| NC(=O)CNC(=O)CC1CCC2(CC1)OOC1(O2)C2CC3CC(C2)CC1C3 (stereo not shown) [compound 306] |  |  |  | 11 | 85 | 7.6 | 99.75 |  |
| CS(=O)(=O)O.O=C(O)CNCC1CCC2(CC1)OOC1(O2)C2CC3CC(C2)CC1C3 (stereo not shown) [compound 309] |  |  |  | 9.4 | 66 | 9.2 | 99 |  |
| NC1(C(=O)NCC2CCC3(CC2)OOC2(O3)C3CC4CC(C3)CC2C4)CCCC1 (stereo not shown) [compound 317] |  |  |  | 11.4 | 73 | 16.8 | 100 |  |
| CS(=O)(=O)O.NC(=O)CCNCC1CCC2(CC1)OOC1(O2)C2CC3CC(C2)CC1C3 (stereo not shown) [compound 319] |  |  |  | 13 | 92 | 11.2 | 99.97 |  |
| NC(=O)c1cn(CC2CCC3(CC2)OOC2(O3)C3CC4CC(C3)CC2C4)cn1 (stereo not shown) [compound 320] |  |  |  | 8.6 | 50 | 9.6 | 96 |  |
| CS(=O)(=O)O.NCCOc1ccc(C2CCC3(CC2)OOC2(O3)C3CC4CC(C3)CC2C4)cc1 (stereo not shown) [compound 323] |  |  |  | 14.4 | 66 | 14.4 | 99.95 |  |
